Assay results published in patent publication US20260167677A1, “ANTI-ADAM10 ANTIBODIES AND USES IN TREATMENT OF CANCER” (Memorial Sloan Kettering Cancer Center, priority 2022, published 2026).

Assays:
[1] = test system: xenografted COLO205 cells; assay: Mouse model of CRC using xenografted COLO205 cells; type: in vivo; settings: first study; 1H5 30 mg/kg i.p. biweekly, irinotecan 20 mg/kg i.p. once a week
Procedure: For the mouse model, COLO205 cells were grown in monolayer culture, harvested by trypsinization, and implanted subcutaneously into the right flank of 6- to 8-week-old female athymic nude mice. Approximately 10 million cells were injected per mouse. Mice were randomized into 4 groups (each n=4).
Tumor volume was determined by external caliper and calculated by the modified ellipsoidal formula: V=½(Length×Width^2). Antitumor efficacy was calculated as (1-dT/dC)[…], where dT is the final tumor volume minus the starting tumor volume from the treatment group, and dC is the final tumor volume minus the starting tumor volume of the control group (Rios-Doria et al., 2015). Error bars were calculated as SEM. The mouse body weight and general health were monitored daily.
In a second study, 1H5 at two different doses was used in the mouse model. For the mouse model, approximately five million cells were implanted (subcutaneous with Matrigel) into 6- to 8-week-old female athymic nude mice. Mice were randomized into 3 groups (each n=5).

[2] = target: T1, human ADAM10 ECD (Homo sapiens, UniProt O14672); assay: Fluorogenic peptide cleavage assay, human ADAM10 ECD; type: biochemical; settings: 1:1 molar ratio; human or bovine ADAM10 ECD not told apart
T1 construct: Human ADAM10 ECD (20-650); Fc-tag (human); made in house; host or cells: baculovirus-infected Hi5 insect cells
T1 sequence (O14672 20-650): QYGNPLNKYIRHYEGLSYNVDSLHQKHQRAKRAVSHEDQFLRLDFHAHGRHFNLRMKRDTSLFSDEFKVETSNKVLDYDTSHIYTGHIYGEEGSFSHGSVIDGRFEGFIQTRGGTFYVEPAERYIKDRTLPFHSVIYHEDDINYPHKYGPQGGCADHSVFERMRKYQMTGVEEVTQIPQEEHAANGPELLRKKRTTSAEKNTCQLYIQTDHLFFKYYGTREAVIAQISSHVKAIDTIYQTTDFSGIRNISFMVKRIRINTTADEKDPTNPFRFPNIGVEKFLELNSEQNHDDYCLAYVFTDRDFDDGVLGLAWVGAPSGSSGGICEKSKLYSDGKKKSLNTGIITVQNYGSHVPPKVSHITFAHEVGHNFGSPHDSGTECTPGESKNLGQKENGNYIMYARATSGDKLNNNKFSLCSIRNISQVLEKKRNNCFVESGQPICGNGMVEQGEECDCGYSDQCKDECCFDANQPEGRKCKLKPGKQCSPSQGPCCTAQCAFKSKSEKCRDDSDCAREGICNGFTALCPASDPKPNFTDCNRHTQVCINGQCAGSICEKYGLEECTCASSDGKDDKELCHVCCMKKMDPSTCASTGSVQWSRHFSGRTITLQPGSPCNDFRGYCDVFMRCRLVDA
Procedure: ADAM10 ECD-antibody or ADAM10 ECD-inhibitor (broad spectrum metalloprotease inhibitor GM6001) complexes were formed at a 1:1 molar ratio prior to the assay. The assay was carried out by mixing 50 μM of a fluorogenic peptide substrate Mca-PLAQAV-Dpa with ADAM10-antibody/inhibitor complexes at 37° C., and monitoring the progress of the enzymatic reaction by fluorescence emission (excitation 320 nm and emission 405 nm) over a time course of 1 hour using a SpectraMax M5. ADAM10 ECD (bovine or human) alone was used as positive control. The substrate peptide was derived from TNFalpha and contains a highly fluorescent 7-methoxycoumarin group and a quencher group, 2,4-dinitrophenyl. ADAM10 cleaves the amide bond between the fluorescent and the quencher group causing an increase in fluorescence (Seegar et al., 2017; Black & Becherer, 1998).

effect on substrate cleavage [2]	Structure (SMILES)	tumor growth inhibition [1] [%]
	CCc1c2c(nc3ccc(OC(=O)N4CCC(N5CCCCC5)CC4)cc13)-c1cc3c(c(=O)n1C2)COC(=O)[C@]3(O)CC [Irinotecan, irinotecan, reference compound]	48
marginal inhibition	CNC(=O)[C@H](Cc1c[nH]c2ccccc12)NC(=O)[C@@H](CC(=O)NO)CC(C)C [broad-spectrum inhibitor, GM6001, reference compound]	
